Structures can show the parent of a compound that is named as a salt. Where two headings read alike, the source gives them in different places.
Assays:
Noradrenalin-Aufnahme = Noradrenalin-Aufnahme (Rattus norvegicus, UniProt Q9WTR4); assay: Inhibition of 3H-noradrenaline uptake in rat brain synaptosomes (hippocampus); format: biochemical, Ratte; settings: for IC50: rat hippocampus synaptosomes, 3H-Noradrenalin ca. 10 nM, 37°C, read-out: Hemmung der Neurotransmitter-Aufnahme in Synaptosomen Noradrenalin IC50; for absolute Wirkstärke bei der Hemmung der Noradrenalin-Aufnahme: potency relative to Imipramin
Description: (§1) Als Wirkungsmechanismus einer Gruppe therapeutisch vielfach genutzter Antidepressiva (z.B. tricyclische Antidepressiva) ist eine Hemmung der neuronalen Aufnahme von Transmittersubstanzen (Noradrenalin und/oder Serotonin) anzusehen. Diese Eigenschaft wird in biologischen Testmodellen zur Charakterisierung von potentiellen Antidepressiva verwendet. Es wurde folgende Methodik eingesetzt: • Hemmung der Neurotransmitter-Aufnahme in Rattenhirn-Synaptosomen
(§2) Hippocampus und Cortex aus Rattenhirn wurden präpariert und in 0,32 M Sucrose-Lösung homogenisiert. Durch differentielle Zentrifugation wurden Synaptosomen erhalten, die in Pufferlösung suspendiert wurden. Die Synaptosomen sind in der Lage, aus dem umgebenden Medium zugefügte Neurotransmittersubstanzen (z.B. Noradrenalin oder Serotonin) aktiv aufzunehmen. Dieser Vorgang ist durch Aufnahme-Hemmer konzentrationsabhängig antagonisierbar. Die Synaptosomen wurden mit den Testsubstanzen in verschiedenen Konzentrationen versetzt und anschließend mit ^3H-Noradrenalin (Hippocampus) bzw. ^3H-Serotonin (Cortex) bei 37°C inkubiert. Die Substratkonzentration betrug ca. 10 nM. Nach Stoppen der Aufnahme durch Verdünnen mit eisgekühlter Pufferlösung wurden die Synaptosomen i abzentrifugiert und die ^3H-Aktivität im Sediment gemessen. Der Blindwert wird durch Inkubation bei 0°C ermittelt.
(§3) Aus den bei verschiedenen Inhibitor-Konzentrationen gegen Kontrolle ermittelten Hemmwerten wurde durch lineare Regression nach logit-log-Transformation die mittlere Hemmkonzentration (ICso) berechnet.

Serotonin-Aufnahme = molecular target: T1, Serotonin-Aufnahme (Rattus norvegicus, UniProt P31652); assay: Inhibition of 3H-serotonin uptake in rat brain synaptosomes (cortex); format: biochemical, Ratte
T1 construct: Durch differentielle Zentrifugation wurden Synaptosomen erhalten; from tissue; host or cells: rat brain cortex synaptosomes
Description: as §1, §2, §3

[1] = rat cortex synaptosomes, 3H-Serotonin ca. 10 nM, 37°C, read-out: Hemmung der Neurotransmitter-Aufnahme in Synaptosomen Serotonin IC50

T1 sequence (P31652 whole entry): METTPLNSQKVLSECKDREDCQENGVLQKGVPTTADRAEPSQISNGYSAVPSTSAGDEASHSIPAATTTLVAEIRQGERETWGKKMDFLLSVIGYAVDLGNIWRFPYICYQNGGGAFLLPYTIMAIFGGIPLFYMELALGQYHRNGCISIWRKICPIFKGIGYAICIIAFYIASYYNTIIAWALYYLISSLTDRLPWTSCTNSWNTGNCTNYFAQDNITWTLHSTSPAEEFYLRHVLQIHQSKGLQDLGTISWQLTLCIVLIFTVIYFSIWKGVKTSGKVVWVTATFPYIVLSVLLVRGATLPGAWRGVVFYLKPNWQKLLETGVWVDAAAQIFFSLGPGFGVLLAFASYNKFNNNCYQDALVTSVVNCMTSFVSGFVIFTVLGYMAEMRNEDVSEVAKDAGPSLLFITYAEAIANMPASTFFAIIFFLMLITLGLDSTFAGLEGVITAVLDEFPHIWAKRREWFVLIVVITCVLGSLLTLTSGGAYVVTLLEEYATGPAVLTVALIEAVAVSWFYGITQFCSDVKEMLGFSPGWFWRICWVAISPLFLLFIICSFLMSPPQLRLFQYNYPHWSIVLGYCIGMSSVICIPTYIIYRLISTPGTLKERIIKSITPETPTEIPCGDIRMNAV
Noradrenalin-Aufnahme, sequence (Q9WTR4 1-597): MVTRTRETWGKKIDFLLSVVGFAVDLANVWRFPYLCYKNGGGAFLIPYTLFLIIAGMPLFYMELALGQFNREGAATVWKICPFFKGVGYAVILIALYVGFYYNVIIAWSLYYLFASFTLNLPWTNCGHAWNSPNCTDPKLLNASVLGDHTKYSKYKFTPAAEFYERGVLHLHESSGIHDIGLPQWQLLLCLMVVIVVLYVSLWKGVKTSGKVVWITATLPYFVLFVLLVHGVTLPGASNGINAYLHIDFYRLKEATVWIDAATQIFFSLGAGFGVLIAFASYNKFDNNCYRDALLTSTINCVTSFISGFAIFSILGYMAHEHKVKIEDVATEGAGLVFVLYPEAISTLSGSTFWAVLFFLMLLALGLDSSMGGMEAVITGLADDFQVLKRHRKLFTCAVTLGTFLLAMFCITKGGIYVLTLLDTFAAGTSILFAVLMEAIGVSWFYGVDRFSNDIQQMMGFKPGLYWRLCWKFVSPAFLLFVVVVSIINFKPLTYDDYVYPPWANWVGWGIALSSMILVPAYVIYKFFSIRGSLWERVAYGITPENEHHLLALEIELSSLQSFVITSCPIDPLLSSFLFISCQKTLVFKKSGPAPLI

| SMILES | IC50 (Noradrenalin-Aufnahme) [nM] | IC50 (Serotonin-Aufnahme; [1]) [nM] | IC50 (Serotonin-Aufnahme) [nM] | absolute Wirkstärke bei der Hemmung der Noradrenalin-Aufnahme (Noradrenalin-Aufnahme) |
| --- | --- | --- | --- | --- |
| CN(C)CC(COc1ccccc1)C(O)c1ccccc1 (stereo not drawn) [Beispiel 1, 1-Dimethylamino-2-phenoxymethyl-3-phenyl-propanol-(3)] | 5.2 | 190 | – | – |
| CN(C)CC(COc1ccccc1)C(O)(c1ccccc1)c1ccccc1 (stereo not drawn) [Beispiel 2.2, 1-Dimethylamino-3,3-diphenyl-2-phenoxymethyl-propanol-(3)] | 94 | 200 | – | – |
| C=CC(O)(c1ccccc1)C(COc1ccccc1)CN(C)C (stereo not drawn) [Beispiel 2.12, l-Dimethylamino-2-phenoxymethyl-3-phenyl-pent-4-enol-(3) Hydrochlorid] | 100 | 69 | – | – |
| CN(C)CC(COc1ccc(Cl)cc1)C(O)(c1ccccc1)c1ccccc1 (stereo not drawn) [Beispiel 2.3, 2-(4-Chlorphenoxymethyl)1-dimethylamino-3,3-diphenyl-propanol-(3)] | 94 | 26 | – | – |
| CCC(O)(c1ccccc1)C(COc1ccccc1)CN(C)C (stereo not drawn) [Beispiel 2, 1-Dimethylamino-3-phenyl-2-phenoxymethyl-pentanol-(3) Hydrochlorid] | 11 | 25 | – | – |
| CCOC(=O)OC(c1ccccc1)C(COc1ccccc1)CN(C)C (stereo not drawn) [Beispiel 5.3, 1-Dimethylamino-3-ethoxycarbonyloxy-2-phenoxymethyl-3-phenyl-propan Hydrochlorid] | 20 | – | 300 | – |
| C=CCOC(c1ccccc1)C(COc1ccccc1)CN(C)C (stereo not drawn) [Beispiel 6, 3-Allyloxy-1-dimethylamino--2-phenoxymethyl-3-phenyl-propan] | 17 | – | 56 | – |
| CN(C)CC(COc1ccccc1)C(C)(O)c1ccccc1 (stereo not drawn) [Beispiel 2.4, 1-Dimethylamino-2-phenoxymethyl-3-phenyl-butanol-(3) Hydrochlorid] | 36 | 66 | – | – |
| CCCC(O)(c1ccccc1)C(COc1ccccc1)CN(C)C (stereo not drawn) [Beispiel 2.5, 1-Dimethylamino-2-phenoxymethyl-3-phenyl-hexanol-(3) Hydrochlorid] | 13 | 37 | – | – |
| CN(C)CC(COc1ccc(Cl)cc1)C(O)c1ccccc1 (stereo not drawn) [Beispiel 1.2, 2-(4-Chlorphenoxymethyl)-1-dimethylamino-3-phenyl-propanol-(3)] | 180 | 20 | – | – |
| CCC(O)(c1ccccc1)C(COc1ccc(Cl)cc1)CN(C)C (stereo not drawn) [Beispiel 2.9, 2-(4-Chlorphenoxymethyl)-1-dimethylamino-3-phenyl-pentanol-(3) Hydrochlorid] | 68 | 100 | – | – |
| CC(=O)OC(c1ccccc1)C(COc1ccccc1)CN(C)C.Cl (stereo not drawn) [Beispiel 5, 3-Acetoxy-1-dimethylamino-2-phenoxymethyl-3-phenylpropan Hydrochlorid] | 1.7 | – | 400 | 8 -fach |
| COc1ccc(OCC2CN(C)CCC2c2ccccc2)cc1 (stereo not drawn) [Femoxetin, reference compound] | 330 | – | – | – |
| CCCC(O)(c1ccccc1)C(COc1ccc(Cl)cc1)CN(C)C (stereo not drawn) [Beispiel 2.6, 2-(4-Chlorphenoxymethyl)-1-dimethylamino-3-phenyl-hexanol-(3) Hydrochlorid] | 200 | 3.6 | – | – |
| CN(C)CC(COc1ccccc1)C(O)c1ccc(F)cc1 (stereo not drawn) [Beispiel 1.3, 1-Dimethylamino-3-(4-fluorphenyl)-2-phenoxymethyl-propanol-(3) Hydrochlorid] | – | 490 | – | – |
| CCCCCCCCC(O)(c1ccccc1)C(COc1ccccc1)CN(C)C (stereo not drawn) [Beispiel 2.10, 1-Dimethylamino-2-phenoxymethyl-3-phenyl-undecanol-(3)] | 38 | 49 | – | – |
| CN(C)CC(COc1ccc(Cl)cc1)C(C)(O)c1ccccc1 (stereo not drawn) [Beispiel 2.8, 2-(4-Chlorphenoxymethyl)-1-dimethylamino-3-phenyl-butanol-(3) Hydrochlorid] | 160 | 3.8 | – | – |
| CN(C)CC(CSc1ccccc1)C(O)c1ccccc1 (stereo not drawn) [Beispiel 1.6, 1-Dimethylamino-3-phenyl-2-thiophenoxymethyl-propanol-(3)] | 1.7 | 65 | – | 8 -fach |
| CCC(O)(c1ccccc1)C(COc1ccc(Cl)cc1)CN(C)C (stereo not drawn) [Beispiel 2.7, 2-(4-Chlorphenoxymethyl)-1-dimethylamino-3-phenyl-pentanol-(3) Hydrochlorid] | 150 | 3.1 | – | – |
| CN(C)CC(COc1ccc(Br)cc1)C(O)c1ccccc1 (stereo not drawn) [Beispiel 1.4, 2-(4-Bromphenoxymethyl)-1-dimethylamino-3-phenylpropanol-(3) Hydrochlorid] | 17 | 73 | – | – |
| CCCCCCCCCCCCC(O)(c1ccccc1)C(COc1ccccc1)CN(C)C (stereo not drawn) [Beispiel 2.11, 1-Dimethylamino-2-phenoxymethyl-3-phenyl-pentadecanol-(3)] | 500 | 300 | – | – |

Reference: patent publication EP0109623A1, “Phenyl-propanol amines, their preparation and use” (BASF Aktiengesellschaft, priority 1982, dated 1984)
